Legend:
MKL-2 cells (VP-MCC) = assay: qHTS cell viability (CellTiter-Glo, 72 h; primary and follow-up small molecule screen); type: cell-based, human
[1] = tested on: MCC cell lines (WAGA, MKL-1, MKL-2, MCC13, MCC26, UISO); assay: qHTS cell viability, all six MCC cell lines as a group (mean AUC, MCC.avg); type: cell-based, human
WAGA cells (VP-MCC) = assay: qHTS cell viability (CellTiter-Glo, 72 h; primary and follow-up small molecule screen); type: cell-based, human
MCC26 cells (VN-MCC) = assay: as above; type: cell-based, human
CRL-7250 cells = assay: qHTS cell viability (CellTiter-Glo, 72 h; primary screen), control cell line; type: cell-based
[2] = tested on: VN-MCC cell lines (MCC13, MCC26, UISO); assay: qHTS cell viability, VN-MCC cell lines as a group (mean AUC, VN.MCC.avg); type: cell-based, human
[3] = tested on: control cell lines (HACAT, HEK293T, CRL-7250, NIH-3T3); assay: qHTS cell viability, control cell lines as a group (mean AUC, Control.avg); type: cell-based
HACAT cells = assay: qHTS cell viability (CellTiter-Glo, 72 h; primary screen), control cell line; type: cell-based, human
MCC13 cells (VN-MCC) = assay: qHTS cell viability (CellTiter-Glo, 72 h; primary and follow-up small molecule screen); type: cell-based, human
[4] = tested on: VP-MCC cell lines (WAGA, MKL-1, MKL-2); assay: qHTS cell viability, VP-MCC cell lines as a group (mean AUC, VP.MCC.avg); type: cell-based, human
NIH-3T3 cells = assay: qHTS cell viability (CellTiter-Glo, 72 h; primary screen), control cell line; type: cell-based, mouse
[5] = tested on: six MCC cell lines and four control cell lines; assay: qHTS cell viability, all 10 cell lines screened; type: cell-based
HEK293T cells = assay: qHTS cell viability (CellTiter-Glo, 72 h; primary screen), control cell line; type: cell-based, human
UISO cells (VN-MCC) = assay: qHTS cell viability (CellTiter-Glo, 72 h; primary and follow-up small molecule screen); type: cell-based, human
MKL-1 cells (VP-MCC) = assay: as above; type: cell-based, human

Compound	MKL2_AUC (MKL-2 cells (VP-MCC))	MCC_Avg_AUC [1]	WAGA_AUC (WAGA cells (VP-MCC))	MCC26_AUC (MCC26 cells (VN-MCC))	CRL7250_AUC (CRL-7250 cells)	Control-VN-MCC [2]	VN-MCC_Avg_AUC [2]	Control_Avg_AUC [3]	HACAT_AUC (HACAT cells)	MCC13_AUC (MCC13 cells (VN-MCC))	Control-VP-MCC [4]	VP-MCC_Avg_AUC [4]	NIH3T3_AUC (NIH-3T3 cells)	Control-MCC [5]	HEK293T_AUC (HEK293T cells)	UISO_AUC (UISO cells (VN-MCC))	MKL1_AUC (MKL-1 cells (VP-MCC))	further results
CC(C)(C)CC(C)(C)c1ccc(OCCOCC[N+](C)(C)Cc2ccccc2)cc1 [Benzethonium chloride]	335.827	398.298	367.918	468.704	423.584	-24.3368	447.14	422.803	436.332	470.477	73.3469	349.456	461.959	24.505	369.337	402.239	344.624	Area under the dose-response curve (AUC) MKL-2 Replicate 1 (MKL-2 cells (VP-MCC)): 357.2; Area under the dose-response curve (AUC) MKL-2 Replicate 2 (MKL-2 cells (VP-MCC)): 340.8; Area under the dose-response curve (AUC) MKL-2 Replicate 3 (MKL-2 cells (VP-MCC)): 365.0; Area under the dose-response curve (AUC) WAGA Replicate 1 (WAGA cells (VP-MCC)): 389.4; Area under the dose-response curve (AUC) WAGA Replicate 2 (WAGA cells (VP-MCC)): 374.6; Area under the dose-response curve (AUC) WAGA Replicate 3 (WAGA cells (VP-MCC)): 382.0; Area under the dose-response curve (AUC) MCC26 Replicate 1 (MCC26 cells (VN-MCC)): 408.1; Area under the dose-response curve (AUC) MCC26 Replicate 2 (MCC26 cells (VN-MCC)): 395.1; Area under the dose-response curve (AUC) MCC26 Replicate 3 (MCC26 cells (VN-MCC)): 422.7; Area under the dose-response curve (AUC) MCC13 Replicate 1 (MCC13 cells (VN-MCC)): 446.4; Area under the dose-response curve (AUC) MCC13 Replicate 2 (MCC13 cells (VN-MCC)): 458.8; Area under the dose-response curve (AUC) MCC13 Replicate 3 (MCC13 cells (VN-MCC)): 480.2; Area under the dose-response curve (AUC) UISO Replicate 1 (UISO cells (VN-MCC)): 363.2; Area under the dose-response curve (AUC) UISO Replicate 2 (UISO cells (VN-MCC)): 392.4; Area under the dose-response curve (AUC) UISO Replicate 3 (UISO cells (VN-MCC)): 362.8; Area under the dose-response curve (AUC) MKL-1 Replicate 1 (MKL-1 cells (VP-MCC)): 338.0; Area under the dose-response curve (AUC) MKL-1 Replicate 2 (MKL-1 cells (VP-MCC)): 346.5; Area under the dose-response curve (AUC) MKL-1 Replicate 3 (MKL-1 cells (VP-MCC)): 373.3
CCC(=O)O[C@@H]1C=C2CCC3C(CCC4(C)C3CC[C@@H]4OC(=O)CC)C2CC1 (stereo partly shown) [Bolandiol dipropionate]	411.71	449.182	383.532	482.222	480.859	-24.2823	496.011	471.728	443.174	478.899	69.3739	402.354	491.81	22.5458	471.071	526.911	411.821	

— publication PMC11822212, “High-throughput screening identifies Aurora kinase B as a critical therapeutic target for Merkel cell carcinoma” (Nature Communications, 2025)
